# In US20260219274A1, “POLYOL SWEETNERS AND CARDIOVASCULAR AND THROMBOTIC EVENT RISK” (THE CLEVELAND CLINIC FOUNDATION, priority 2023, published 2026):
# Tests used:
# [1] = system: stable subjects undergoing elective diagnostic cardiac evaluations (Discovery Cohort); settings: in vivo
# Source text: Our first study employed a Discovery Cohort, where we used untargeted metabolomics (semi-quantitative analyses) to analyze plasma samples from 1,157 stable subjects to identify circulating analytes whose levels were associated with future development of adverse cardiovascular events over an ensuing 3 year period. The Discovery Cohort included sequential stable patients (ages 18 years or above) undergoing elective diagnostic coronary angiography for risk evaluation at a quaternary referral center between 2001 and 2007 (GeneBank at the Cleveland Clinic; clinicaltrials.gov identifier: NCT00590200) with clinical and longitudinal outcomes.
# In both, the Discovery and Validation Cohorts, Major Adverse Cardiovascular Events (MACE) were defined as death, nonfatal myocardial infarction, or nonfatal cerebrovascular accident (stroke) during follow-up. Adjudicated long term survival data were collected through medical records review and Social Security Death Index query. Cardiovascular disease (CVD) was indicated as presence of peripheral artery disease or coronary artery disease, indicated as any clinical history of myocardial infarction, coronary revascularization (including percutaneous coronary intervention, coronary artery bypass surgery), or angiographic evidence of significant stenosis (≥50%) in 1 or more major coronary arteries. Estimated glomerular filtration rate (eGFR) in both cohorts was calculated based on the recent Chronic Kidney Disease Epidemiology Collaboration 2021 CKD-EPI Creatinine equation.^37 Platelet-related hematology analyses were performed with an Advia 120 hematology analyzer (Siemens, New York, NY).^38 Use of anti-platelet agents (=1556) was defined as either aspirin or a P2Y12 agent or both. All observational studies in this example are reported in compliance with the STrengthening the Reporting of Observational studies in Epidemiology (STROBE)-Statement.^39 Information on gender of study participants of the Discovery and Validation Cohorts is reported in Table 1-3.
# For untargeted mass spectrometry analyses, subject plasma samples were derivatized and run on GC-MS analyses as previously described.^19 Raw data files were processed using the metabolomics BinBase database.^45
# Continuous variables are summarized as median (interquartile range [IQR]), and categorical variables are presented as %. Difference between groups (e.g. tertiles or quartiles) were examined using Kruskal Wallis test for continuous variables and chisq (χ^2) test for categorical variables. Kaplan-Meier analysis with Cox proportional-hazards regression was used for time-to-event analysis to determine hazard ratios (HR) and 95% confidence intervals (CI) for incident MACE. Adjustments included traditional cardiovascular risk factors (age, sex, diabetes mellitus, systolic blood pressure, low-density lipoprotein cholesterol levels, high-density lipoprotein cholesterol levels, triglyceride levels, smoking status) and high-sensitivity C-reactive protein (hsCRP). We confirmed that the proportionality hazards assumptions were met using the Schoenfeld residuals against the transformed time. Mann-Whitney U-test or Wilcoxon matched-pairs signed rank test were applied to continuous variables to examine differences between 2 groups. Kruskal-Wallis test with Dunn's post hoc test was used for pairwise multiple comparisons of ranked data. Two-way ANOVA with Šidák's multiple comparison post hoc test was used for multiple-group comparisons of aggregometry responses using different concentrations of agonists. For analysis of collagen-dependent platelet adhesion in whole blood, a two-way repeated measures ANOVA with Sidák's multiple comparison post hoc test was used. All reported measurements represent distinct samples. Data analyses were performed with R software (version 4.0.2) and GraphPad Prism software (version 9.1.2). A two-sided P<0.05 was considered statistically significant. […]
# [2] = set-up: species or system mice; settings: mouse, in vivo
# Experimental: FIG. 11. […] Mice were gavaged with roughly molar equivalent levels of either xylitol alone (500 mg/kg in water) or erythritol alone (400 mg/kg), or both compounds (500 mg/kg xylitol and 400 mg/kg erythritol). Time-dependent changes in levels of xylitol and erythritol were quantified using LC-MS/MS in plasma (Panel A), urine (Panel B), and feces (Panel C) for the three groups of mice. At baseline, both xylitol and erythritol are present in mouse plasma at low levels (0.5-1.0 μM). […] Reported is content of xylitol and erythritol per ug of wet feces.
# Stable-isotope-dilution LC-MS/MS was developed to specifically quantify xylitol in human and mouse plasma, urine and feces (fecal pellets were dissolved in water and supernatant subjected to LC-MS/MS). Ice cold methanol (800 μL) and internal standard (^13C2-arabitol) were added to the plasma samples (20 μL) or urine (20 μL) previously diluted in MQ water, followed by vortexing and centrifuging (21,000×g; 4° C. for 15 min). The clear supernatant (800 μL) was transferred into a clean, labeled glass tubes (Borosilicate glass 12×75 mm) and dried in a speed vacuum concentrator (Speed vac plus, SC210, Thermo Sevant). Acetylation was used since xylitol is poorly ionizable in order to achieve better retention on the reverse phase column and separation from other structural isomers as well as better ionization to achieve better sensitivity. The dry residue was reconstituted in acetic anhydride (100 μL) and 4-Dimethylaminopyridine (DMAP) in pyridine (100 μl; 1 mg/mL), sealed with safety caps, vortexed and heated (45 min at 80° C.) followed with drying under nitrogen. Dried residues were dissolved in HCl in water (0.1 M; 0.5 mL) and extracted with ethylacetate (2.0 mL). Ethylacetate layer was transferred into a clean glass tube (Borosilicate glass 12×75 mm) and dried under nitrogen. The dry residue was reconstituted in ammonium formate in a mixture of methanol:water (100 μL; 50:50 v/v with 10 mM ammonium formate), tubes were vortexed and liquid was transferred to glass vials with micro-insets and caped. LC-MS/MS analysis was performed on a chromatographic system consisting of two Shimadzu LC-30 AD pumps (Nexcra X2), a CTO 20AC oven operating at 30° C., and a SIL-30 AC-MP autosampler in tandem with a triple quadruple mass spectrometer (8050 series, Shimadzu Scientific Instruments, Inc., Columbia, MD, USA). For chromatographic separation, a Kinetex C18 column (50 mm×2.1 mm; 2.6 μm) (Cat #00B-4462-AN, Phenomenex, Torrance, CA) was used. […] Accuracy and precision of the method to quantify xylitol (separated from its structural isomers arabitol and ribitol) were assessed by a standard addition method of pure synthetic standard into different plasma pools. The accuracy of xylitol measurement was determined by the method of standard additions^12 using three different plasma pools, and was 2.4-2.8%. Intra- and inter-day coefficients of variation (CVs), measured by multiple analysis of three different control samples, were 1.2-8.9% and 10.9-11.5%, respectively. Freeze/thaw stability was determined over the five cycles and it was less than 7% for xylitol. The limit of quantification (LOQ) was defined (by convention) as the level at which xylitol was measured within the matrix (plasma) with a peak having signal-to-noise-ratio of 10:1. Limit of detection (LOD) was determined to be the lowest concentration of xylitol in the sample with a signal-to-noise ratio ≥3. […]
SMILES,HR for MACE [1],HR with 95% CI [1],adjusted HR for incident MACE [1],baseline plasma level [2] [µM],oral absorption in mice ([2]; po),adjusted HR [95% CI] for incident (3 year) MACE [1],hazard ratio (HR) [95% CI] for incident (3 year) MACE [1],postprandial increase in urine [2],recovery in feces [2]
OC[C@@H](O)[C@@H](O)CO [erythritol],3.22 [95% CI 1.91-5.41],1.31 (1.17-1.46),2.95 [1.70-5.12],0.5 to 1.0,rapidly absorbed,,,,
OC[C@@H](O)[C@H](O)[C@@H](O)CO [xylitol],,,,0.5 to 1.0,,1.64 [1.05-2.56],1.63 [1.04-2.53],Significant xylitol increases also were not observed,the majority of xylitol is recovered in feces
